The target of experiment [1] is T1, C. albicans RNA polymerase II (Candida albicans, UniProt A0A1D8PUA6+Q5A8Y5).
T1 construct: RNA elongation assay on calf thymus DNA
Put plainly: biochemical. Particulars: for IC50: read-out: IC50 Candida pol II; for inhibition at 20 µM: screening of azo library. How it is done: The following procedure is used for cell-free high-throughput screening. A Tomtec Quadra 96-well pipetting station is used to add the reaction components to polypropylene 96-well dishes. 5 μl aliquots of test compounds dissolved in DMSO (or DMSO alone as a control) are added to wells. This is followed by 20 μl of the RNA polymerase II mixture, which consists of: 10 mM DTT, 200 mM KCl, 10 mM Mn^+2, 1.5 μM bovine serum albumin, and 0.25 μg reconstituted RNA polymerase. After allowing the test compound to interact with the RNA polymerase, 25 μl of the DNA/NTP mixture is added, containing: 1 μg calf thymus DNA, 4 μM [α-^32 P]-UTP, and 400 μM each CTP, ATP, and GTP.
After incubation for 60 min at 30 C, the reaction is stopped by addition of 50 μl 15% trichloroacetic acid (TCA). The TCA-precipitated RNA is adsorbed onto double-thick glass fiber filtermats using a Tomtec cell harvester. The wells of the microtiter plate and the filter are washed twice with 5% TCA and bound radioactivity is determined using a Wallac microbeta 1450 scintillation counter.
Inhibitory activity due to the test compound is calculated according to the formula: [formula] where cpmpositive control represents the average of the cpm in wells that received DMSO alone, and cpmsample represents the cpm in the well that received test compound. Compounds that cause at least 50% inhibition are scored as positive "hits" in this assay.
DNA-directed RNA polymerase II from Candida albicans was purified in sufficient quantity to support high throughput screening of large synthetic chemical and natural product libraries. A biochemical mechanism-based screen for detecting inhibitors of Pol II was developed and implemented. The screen is outlined in FIGS. 4A and 4B.

The target in a further experiment is T2, human Pol II (Homo sapiens, UniProt P24928+P30876).
T2 construct: Pol II was isolated from Aspergillus nidulans, Saccharomyces cerevisiae, and human cells; endogenous in cells; enzyme isolated from them
Briefly: RNA polymerase II counterscreen, human pol II. The class given is biochemical. The note with it: read-out: IC50 Human pol II. How it is done:
Pol II was isolated from Aspergillus nidulans, Saccharomyces cerevisiae, and human cells (FIG. 5) and used in secondary screens for fungal spectrum and specificity. Pol I and Pol III were isolated from Candida albicans and used as an additional mechanism to study specificity. Confirmed hits form the primary assay and were evaluated against this panel of polymerases. Agents with activity against Pol II from multiple fungal enzymes but not against the human counterpart were evaluated in vitro against fungal pathogens.
(A counterscreen serves to expose hits that act by an unwanted route or on another target.)

A further experiment relates to C. albicans. Briefly: Time course of fungicidal activity, C. albicans. The class given is cell-based, Candida albicans. The note with it: C. albicans cells. From the text: (§1) Compound 1 is rapidly fungicidal.
The subject of the next experiment is S. cerevisiae. Briefly: Time course of fungicidal activity, S. cerevisiae. The class given is cell-based, Saccharomyces cerevisiae. The note with it: S. cerevisiae cells.
From the text: as §1

The test system of experiment [2] is systemic Candida infection. Put plainly: Murine model for systemic candidiasis. The class given is in vivo, mouse. Particulars: systemic candidiasis, mice. How it is done:
In addition, Compound 1 was efficacious in a murine model for systemic candidiasis (FIG. 10). It prolonged mean and median survival times of treated mice in the dosage range of 5 mg/kg/d to 100 mg/kg/d on aq.d., d2-11 schedule. […] The efficacy of Compound 1 was confirmed in a separate experiment using amphotericin as a control (FIG. 11). Compound 1 was also efficacious when administered orally to mice with an established systemic Candida infection (FIG. 12). […] Compound 1 is also effective against systemic candidiasis caused by a strain of C. albicans resistant to fluconazole (FIG. 13). Additional animal testing will include acute toxicity determination, route and schedule dependency in standard efficacy models, efficacy testing in immunosuppressed Candida infected mice, efficacy in an Aspergillus infection model, and pharmacokinetics following IV and oral dosing.
Compound 6 was evaluated for antifungal efficacy in a systemic candidiasis model in immunocompetent mice (FIG. 18). The compound was administered IP on a q.d., d2-11 schedule. […] 90% long term survival was seen formice treated with Compound 6 at 200/mg/kg. 30% of mice survived when treated with Compound 6 at 100 mg/kg/d. Compound 6 was also effective against systemic candidiasis when administered orally (FIG. 19) and it was effective in treating infections caused by fluconazole-resistant C. albicans.

The mark [3] stands for this setting: 1.5 μg/ml, similar time (45 minutes).

Like-named read-outs stand apart in the source and are kept apart here. Some results are limits rather than exact numbers.

T1 sequence (A0A1D8PUA6 1-1728): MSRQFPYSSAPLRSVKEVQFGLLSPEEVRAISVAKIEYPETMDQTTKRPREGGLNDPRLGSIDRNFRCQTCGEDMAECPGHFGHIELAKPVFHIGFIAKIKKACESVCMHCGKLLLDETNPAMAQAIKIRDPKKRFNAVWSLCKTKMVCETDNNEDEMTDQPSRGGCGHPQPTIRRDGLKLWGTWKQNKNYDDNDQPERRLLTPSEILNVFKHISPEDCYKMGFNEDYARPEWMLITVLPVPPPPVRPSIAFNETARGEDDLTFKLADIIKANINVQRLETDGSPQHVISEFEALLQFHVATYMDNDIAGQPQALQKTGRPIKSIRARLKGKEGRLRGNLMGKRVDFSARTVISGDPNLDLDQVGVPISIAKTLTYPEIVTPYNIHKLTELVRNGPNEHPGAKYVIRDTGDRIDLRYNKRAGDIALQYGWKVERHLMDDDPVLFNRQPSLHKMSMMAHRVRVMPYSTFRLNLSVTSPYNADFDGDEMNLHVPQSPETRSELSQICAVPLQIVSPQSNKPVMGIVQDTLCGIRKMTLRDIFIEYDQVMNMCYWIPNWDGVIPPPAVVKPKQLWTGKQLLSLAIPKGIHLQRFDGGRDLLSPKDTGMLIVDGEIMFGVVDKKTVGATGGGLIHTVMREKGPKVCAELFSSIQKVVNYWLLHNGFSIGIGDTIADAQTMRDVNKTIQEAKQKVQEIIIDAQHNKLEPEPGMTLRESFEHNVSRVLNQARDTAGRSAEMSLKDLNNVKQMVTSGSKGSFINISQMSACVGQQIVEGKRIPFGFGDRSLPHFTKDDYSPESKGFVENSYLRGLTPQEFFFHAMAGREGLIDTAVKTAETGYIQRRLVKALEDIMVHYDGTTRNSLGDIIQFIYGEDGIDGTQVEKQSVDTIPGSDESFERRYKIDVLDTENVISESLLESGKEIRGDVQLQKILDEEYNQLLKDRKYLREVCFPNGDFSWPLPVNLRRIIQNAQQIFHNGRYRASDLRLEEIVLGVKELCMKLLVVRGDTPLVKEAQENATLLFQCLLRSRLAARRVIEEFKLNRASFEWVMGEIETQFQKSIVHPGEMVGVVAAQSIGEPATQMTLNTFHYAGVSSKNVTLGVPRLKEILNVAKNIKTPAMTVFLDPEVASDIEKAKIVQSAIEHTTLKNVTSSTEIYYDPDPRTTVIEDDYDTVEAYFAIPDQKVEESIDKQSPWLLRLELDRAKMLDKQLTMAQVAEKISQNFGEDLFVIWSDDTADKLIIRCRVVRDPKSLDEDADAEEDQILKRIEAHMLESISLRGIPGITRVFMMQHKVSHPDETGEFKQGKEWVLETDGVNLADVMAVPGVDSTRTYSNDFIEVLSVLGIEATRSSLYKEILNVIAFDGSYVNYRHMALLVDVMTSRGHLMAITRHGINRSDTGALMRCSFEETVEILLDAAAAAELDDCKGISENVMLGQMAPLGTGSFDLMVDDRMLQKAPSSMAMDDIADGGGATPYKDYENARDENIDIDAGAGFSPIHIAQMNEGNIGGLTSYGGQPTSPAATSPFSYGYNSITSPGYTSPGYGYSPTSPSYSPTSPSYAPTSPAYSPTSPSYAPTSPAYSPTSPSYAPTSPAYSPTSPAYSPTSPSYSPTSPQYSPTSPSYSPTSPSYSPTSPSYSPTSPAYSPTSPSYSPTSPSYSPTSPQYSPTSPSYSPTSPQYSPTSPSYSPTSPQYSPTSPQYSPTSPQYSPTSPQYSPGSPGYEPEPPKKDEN
T1 sequence (Q5A8Y5 1-1234): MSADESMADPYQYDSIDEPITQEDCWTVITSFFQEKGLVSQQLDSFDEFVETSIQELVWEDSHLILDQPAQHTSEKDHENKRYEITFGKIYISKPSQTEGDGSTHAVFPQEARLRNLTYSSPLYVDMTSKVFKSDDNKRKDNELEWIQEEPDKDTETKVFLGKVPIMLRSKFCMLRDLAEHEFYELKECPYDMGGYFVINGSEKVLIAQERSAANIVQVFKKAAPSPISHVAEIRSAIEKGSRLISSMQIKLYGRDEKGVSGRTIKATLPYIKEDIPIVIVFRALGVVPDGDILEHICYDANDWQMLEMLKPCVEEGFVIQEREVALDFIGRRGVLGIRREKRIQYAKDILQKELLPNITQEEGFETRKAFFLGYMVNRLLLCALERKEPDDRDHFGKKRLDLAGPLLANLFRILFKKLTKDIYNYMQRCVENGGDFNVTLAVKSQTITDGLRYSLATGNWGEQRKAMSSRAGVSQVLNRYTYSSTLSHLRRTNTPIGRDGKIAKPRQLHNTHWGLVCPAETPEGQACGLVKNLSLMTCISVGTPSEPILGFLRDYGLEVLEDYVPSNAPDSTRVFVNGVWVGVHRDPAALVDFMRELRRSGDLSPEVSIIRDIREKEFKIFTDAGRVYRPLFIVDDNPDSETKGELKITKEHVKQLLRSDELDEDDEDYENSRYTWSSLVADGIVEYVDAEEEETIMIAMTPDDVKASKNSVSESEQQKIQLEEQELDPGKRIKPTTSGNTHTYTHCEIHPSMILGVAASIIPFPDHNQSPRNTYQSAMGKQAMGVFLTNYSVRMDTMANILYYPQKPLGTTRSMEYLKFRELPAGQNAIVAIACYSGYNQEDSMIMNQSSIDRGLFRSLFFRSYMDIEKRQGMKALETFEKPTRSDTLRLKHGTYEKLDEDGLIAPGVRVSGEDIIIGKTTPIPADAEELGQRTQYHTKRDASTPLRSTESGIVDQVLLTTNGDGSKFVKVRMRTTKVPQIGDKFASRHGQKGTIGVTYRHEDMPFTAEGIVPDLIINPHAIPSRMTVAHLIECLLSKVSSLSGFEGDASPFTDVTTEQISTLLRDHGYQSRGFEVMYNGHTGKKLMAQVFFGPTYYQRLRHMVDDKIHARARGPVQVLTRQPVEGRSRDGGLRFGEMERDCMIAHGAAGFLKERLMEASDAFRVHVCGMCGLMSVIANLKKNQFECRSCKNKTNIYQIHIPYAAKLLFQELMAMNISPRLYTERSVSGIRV

As for `OB(O)c1cc(C=Cc2cccc(C(F)(F)F)c2)ccc1O` [Compound 27], the IC50 is 58 µM in experiment [1] (Table 2) and 136 µM on human Pol II (Table 2).
On the same counts, the results for `O=C(Nc1cccc(C(F)(F)F)c1)c1ccc(OCc2ccccc2)cc1` [Compound 29, 4-benzoxy-N-[3-(trifluoromethyl)phenyl]benzamide] are more than 2000 µM and more than 2000 µM.
In experiment [1], `Oc1ccc(N=Nc2cccc(Cl)c2)cc1` [Compound 11, 4-[-2-[3-(chloro)phenyl]diazenyl]phenol] yielded an inhibition at 20 µM of 50%.
Still for that read-out and setting: next, `Oc1ccc(N=Nc2ccc(F)c(C(F)(F)F)c2)cc1` [Compound 14]: 42%.
As for `COCOc1ccc(C=Cc2cccc(C(F)(F)F)c2)cc1` [Compound 25, 4-[-2-[3-(trifluorometbyl)phenyl]ethenyl]-methoxymethoxyl phenyl], the IC50 (in experiment [1] (Table 2); on human Pol II (Table 2)) was more than 2000 µM each time.
Take `Cc1cccc(N=Nc2ccc(O)cc2)c1` [Compound 5, 4-[-2-[3-(methyl)phenyl]diazenyl]-phenol]: the results for the IC50 (in experiment [1] (Table 2); on human Pol II (Table 2)) were 90 µM and 340 µM, respectively.
In the case of `O=C(Nc1cccc(C(F)(F)F)c1)c1ccc(O)cc1` [Compound 30, 4-hydroxy-N-[3-(trifnuoromethyl)phenyl]benzamide], the figures for the IC50 (in experiment [1] (Table 1); at human Pol II (Table 1)) were 27 µM and 82 µM, respectively.
On the same counts, the results for `Oc1ccc(CCc2cccc(C(F)(F)F)c2)cc1` [CH2 CH2] are 230 µM and more than 2000 µM.
`O=[N+]([O-])c1cc(O)ccc1N=Nc1cccc(C(F)(F)F)c1` [Compound 23, 4-[-2-[3-(trifluoromethyl]phenyl)diazenyl]-3-nitro-phenol]: the inhibition at 20 µM in experiment [1] was determined as 37%.
Consider `O=C(O)CN(CCN(CC(=O)O)CC(=O)O)CC(=O)O` [EDTA, reference compound], for which the inhibition at 10 µM in experiment [1] (1 h, read-out: inhibition of transcription) is not below 90%.
The compound `COc1cc(N=Nc2ccc(O)cc2)cc(C(F)(F)F)c1` [Compound 17] showed an inhibition at 20 µM in experiment [1] of 53%.
Same read-out and setting: next, `Oc1ccc(N=Nc2cc(C(F)(F)F)ccc2F)cc1` [Compound 15, 4-[-2-[6-fluoro-3-(trifluoromethyl)phenyl]diazenyl]phenol]: 39%.
Take `COc1ccc(C=Cc2cccc(C(F)(F)F)c2)cc1` [Compound 24, 4-[-2-[3-(trifluoromethyl)-phenyl]ethenyl]-anisole]: the IC50 (in experiment [1] (Table 2); at human Pol II (Table 2)) was more than 2000 µM throughout.
`COc1ccc(N=Nc2cccc(C(F)(F)F)c2)cc1` [Compound 3, 4-[-2-[3-(trifluoromethyl)phenyl]diazenyl]-anisole]: the IC50 (in experiment [1] (Table 2); on human Pol II (Table 2)) was more than 2000 µM each time.
With `O=C(O)c1cc(N=Nc2cccc(C(F)(F)F)c2)ccc1O` [Compound 9, 5-[-2-[3-(trifluoromethyl)phenyl]diazenyl]-2-hydroxy-benzoic acid], the results for the IC50 (in experiment [1] (Table 2); at human Pol II (Table 2)) were 193 µM and 148 µM, respectively.
Regarding `C[C@@H]1[C@H](O)[C@@H](C)/C=C/C=C/C=C/C=C/C=C/C=C/C=C/[C@H](O[C@@H]2O[C@H](C)[C@@H](O)[C@H](N)[C@@H]2O)C[C@@H]2O[C@](O)(C[C@@H](O)C[C@@H](O)[C@H](O)CC[C@@H](O)C[C@@H](O)CC(=O)O[C@H]1C)C[C@H](O)[C@H]2C(=O)O` [amphotericin B, reference compound], the “exposure time after which no CFUs are recoverable” value in the experiment with C. albicans and in the experiment on S. cerevisiae was approximately 30 min in each case. In addition, the “colony forming units after exposure” value with C. albicans (setting [3]) and in the experiment with S. cerevisiae (setting [3]) was “no colony forming units are detected” in each case.
Regarding `O=C(Nc1ccc(O)cc1)c1cccc(C(F)(F)F)c1` [CONH], the IC50 came out at 51 µM in experiment [1] (Table 1) and 500 µM at human Pol II (Table 1).
Compound `Oc1ccc(N=Nc2cc(C(F)(F)F)cc(C(F)(F)F)c2)cc1` [Compound 16, 4-[-2-[3,5-(di-trifluoromethyl)phenyl]diazenyl]phenol] showed an inhibition at 20 µM in experiment [1] of 28%.
As to `OC(Cn1cncn1)(Cn1cncn1)c1ccc(F)cc1F` [fluconazole, reference compound], the “recoverable colonies from the kidneys of treated animals” value in experiment [2] is listed as “reduced”.
In turn, `N#Cc1cc(O)ccc1N=Nc1cccc(C(F)(F)F)c1` [Compound 20, 4-[-2-[3-(trifluoromethyl)phenyl]diazenyl]-3-cyano-phenol] yielded an inhibition at 20 µM in experiment [1] of 28%.
On to `O=[N+]([O-])c1cc(C(F)(F)F)ccc1N=Nc1ccc(O)cc1` [Compound 7], for which the values for the IC50 (in experiment [1] (Table 2); on human Pol II (Table 2)) were 190 µM and 300 µM, respectively.
As to `OCc1cc(N=Nc2cccc(C(F)(F)F)c2)ccc1O` [Compound 19, 4-[-2-[3-(tnfluoromethyl)phenyl]diazenyl]-2-(hydroxymethyl)-phenol], in experiment [1], testing at 20 µM gave an inhibition of 33%.
Still for that read-out and setting: next, `Oc1ccc(N=Nc2cccc(C(F)(F)F)c2F)cc1` [Compound 13, 4-[-2-[2-fluoro-3-(trifluoromethyl)phenyl]diazenyl]phenol]: 38%.
`N#Cc1cc(N=Nc2cccc(C(F)(F)F)c2)ccc1O` [Compound 18, 4-[-2-[3-(trifluoromethyl)phenyl]diazenyl]-2-cyano-phenol] displayed an inhibition at 20 µM in experiment [1] of 37%.
`OCc1cc(O)ccc1N=Nc1cccc(C(F)(F)F)c1` [Compound 21, 4-[-2-[3-(trifluoromethyl)phenyl]diazenyl]-3-(hydroxymethyl)-phenol] registered an inhibition at 20 µM in experiment [1] of 39%.
Same read-out and setting: for `Cc1cc(O)ccc1N=Nc1cccc(C(F)(F)F)c1` [Compound 22, 4[-2-[3-(trifluoromethyl)phenyl]diazenyl]-3-methyl-phenol] the value was 42%.
As to “4-[-2-[3-(trifluoromethyl)phenyl]diazenyl]-2-hydroxy-phenol [Compound 4]”, the IC50 in experiment [1] (Table 2) is 70 µM; at human Pol II (Table 2) it was 230 µM.
In experiment [1], `O=[N+]([O-])c1cccc(N=Nc2ccc(O)cc2)c1` [Compound 12, 4-[-2-[3-(nitro)phenyl]diazenyl]phenol] yielded an inhibition at 20 µM of 45%.
Take `Oc1ccc(C=Cc2cccc(C(F)(F)F)c2)cc1Br` [Compound 26, 4-[-2-[3-(trifluoromethyl)phenyl]ethenyl]-2-bromo-phenol]: the IC50 in experiment [1] (Table 2) stood at 42 µM; on human Pol II (Table 2), 84 µM.
The corresponding values for `O=[N+]([O-])c1cc(N=Nc2cccc(C(F)(F)F)c2)ccc1O` [Compound 8, 4-[-2-[3-(trifluoromethyl)phenyl]diazenyl]-2-nitrophenol] are 103 µM and more than 2000 µM.
For `O=Cc1cc(/N=N/c2cccc(C(F)(F)F)c2)ccc1O` [Compound 10, 5-[(E)-2-[3-(trifluoromethyl)phenyl]diazenyl]-2-hydroxy-benzaldehyde], the IC50 stood at 34 µM in experiment [1] (Table 2) and 82 µM on human Pol II (Table 2).

One may read the IC50 as the concentration that gives 50% inhibition. In general, inhibition refers to the percentage by which the read-out fell short of the control.

These data come from patent publication US6165998A, “Antifungal agents” (Scriptgen Pharmaceuticals, Inc., priority 1998, dated 2000).
